These results are taken from patent US20250387354A1 (SpringWorks Therapeutics, Inc., priority 2024, published 2025).

The subject of this assay is NF1-associated plexiform neurofibromas (PNs). Kind of assay: Phase 2b trial of mirdametinib: confirmed objective response by BICR volumetric MRI per REiNS criteria. The assay is classed as in vivo, human. The protocol: Study treatment was administered orally at a twice daily (BID) dose specified in the table below. Dosing was on a 28-day Cycle (4-week course) with a 3 week on/1 week off schedule. The treatment period will last for up to 24 Cycles followed by a 30-day Safety Follow-Up period.
A partial response was defined as PN decrease ≥20% compared to baseline using centrally read MRI volumetric analysis.
The major efficacy outcome measure was confirmed objective response rate (ORR), defined as the percentage of patients with complete response (disappearance of the target PN) or confirmed partial response ([…]). Responses were assessed by blinded independent central review (BICR) using volumetric magnetic resonance imaging (MRI) analysis per Response Evaluation in Neurofibromatosis and Schwannomatosis (REINS) criteria. A secondary efficacy objective was to determine the duration of response for patients who achieved a confirmed objective response.

In the case of `O=C(NOC[C@H](O)CO)c1ccc(F)c(F)c1Nc1ccc(I)cc1F` (single isomer, unassigned) [mirdametinib], the “ORR also considering confirmed objective responses after cycle 24” value turned out to be 45% (adults) and 54% (pediatric patients).
